Test results from ChEMBL document CHEMBL4706474, “Tetrahydro-2-naphthyl and 2-Indanyl Triazolopyrimidines Targeting Plasmodium falciparum Dihydroorotate Dehydrogenase Display Potent and Selective Antimalarial Activity” (J Med Chem, 2016).
Values after ≈ are worked out from the molar mass of the structure shown.

What was measured:
[1] = Apparent half-life in Swiss mouse at 20 mg/kg, po administered as single dose via gavage measured over 24 hrs by LC-MS analysis; format: ADME, organism-based; details: in vivo
[2] = Intrinsic clearance in rat liver microsomes assessed per mg protein at 1 uM by LC-MS analysis; format: ADME, Microsome; details: microsomes, 1 µM
in vivo = details: Sprague-Dawley, rat, po, 18.3 mg/kg
[3] = Cmax in Swiss mouse at 20 mg/kg, po administered as single dose via gavage measured over 24 hrs by LC-MS analysis; format: ADME, organism-based; set-up: route oral, dose 20 mg/kg, time >24; details: in vivo
[4] = AUC (0 to infinity) in Sprague-Dawley rat at 18.3 mg/kg, po measured over 24 hrs by LC-MS analysis; format: ADME, organism-based; set-up: route oral, dose 18.3 mg/kg, time >24; details: in vivo
[5] = Unbound AUC (0 to infinity) in Sprague-Dawley rat at 18.3 mg/kg, po measured over 24 hrs by LC-MS analysis; format: ADME, organism-based; details: in vivo
[6] = Inhibition of yeast DHODH expressed in Plasmodium falciparum; set-up: species or system Saccharomyces cerevisiae
[7] = Unbound Cmax in Sprague-Dawley rat at 18.3 mg/kg, po measured over 24 hrs by LC-MS analysis; format: ADME, organism-based; details: in vivo
[8] = Apparent half-life in Sprague-Dawley rat at […], iv administered as infusion for 10 mins by LC-MS analysis; format: ADME, organism-based; details: in vivo, dose 1.1 mg/kg, read-out: t1/2(app) (converted)
[9] = Elimination half-life in Swiss mouse at 20 mg/kg, po administered as single dose via gavage measured over 24 hrs by LC-MS analysis; format: ADME, organism-based; details: in vivo, read-out: beta t1/2 (converted)
[10] = Intrinsic clearance in mouse liver microsomes at 1 uM by LC-MS analysis; format: ADME, Microsome
[11] = Protein binding in rat plasma assessed as bound fraction by LC-MS analysis based ultracentrifugation assay; format: ADME, cell-free; details: read-out: PPB (converted)
[12] = Inhibition of N-terminal His6-tagged dog DHODH expressed in Escherichia coli BL21 using L-DHO as substrate and CoQ as co-substrate by DCIP dye based spectrophotometric assay; set-up: species or system Canis lupus familiaris
[13] = Unbound clearance in Sprague-Dawley rat at […], iv administered as infusion for 10 mins by LC-MS analysis; format: ADME, organism-based; details: in vivo, dose 1.1 mg/kg
[14] = Solubility of compound in FaSSIF at pH 6.5 measured after 5 to 6 hrs by HPLC-UV based analysis
[15] = Protein binding in human plasma assessed as bound fraction by LC-MS analysis based ultracentrifugation assay; format: ADME, cell-free; details: read-out: PPB (converted)
[16] = Solubility of compound in 0.1 N HCl measured after 5 to 6 hrs by HPLC-UV based analysis; format: physicochemical; details: buffer; time 5-6 hrs
[17] = Tmax in Swiss mouse at 20 mg/kg, po administered as single dose via gavage measured over 24 hrs by LC-MS analysis; format: ADME, organism-based; details: in vivo
Plasmodium falciparum = assay: Antiplasmodial activity against Plasmodium falciparum 3D7 infected in RBC assessed as reduction in parasitemia incubated for 72 hrs by SYBR green dye-based assay; format: functional, organism-based; details: rbc
[18] = AUC (0 to infinity) in Swiss mouse at 20 mg/kg, po administered as single dose via gavage measured over 24 hrs by LC-MS analysis; format: ADME, organism-based; set-up: route oral, dose 20 mg/kg, time >24; details: in vivo
[19] = Unbound volume of distribution at steady state in Sprague-Dawley rat at […], iv administered as infusion for 10 mins by LC-MS analysis; format: ADME, organism-based; details: in vivo, dose 1.1 mg/kg
[20] = Unbound AUC (0 to infinity) in Sprague-Dawley rat at […], iv by LC-MS analysis; format: ADME, organism-based; details: in vivo, dose 1.1 mg/kg
[21] = Unbound AUC (0 to infinity) in Swiss mouse at 20 mg/kg, po administered as single dose via gavage measured over 24 hrs by LC-MS analysis; format: ADME, organism-based; details: in vivo
[22] = Inhibition of N-terminal His6-tagged Plasmodium falciparum DHODH expressed in Escherichia coli BL21 using L-DHO as substrate and CoQ as co-substrate by DCIP dye based spectrophotometric assay
[23] = Cmax in Sprague-Dawley rat at 18.3 mg/kg, po measured over 24 hrs by LC-MS analysis; format: ADME, organism-based; set-up: route oral, dose 18.3 mg/kg, time >24; details: in vivo
[24] = Solubility of compound in FeSSIF at pH 5 measured after 5 to 6 hrs by HPLC-UV based analysis; format: physicochemical; details: simulated gi fluid, time 5-6 hrs
[25] = Lipophilicity, logD of the compound at pH 7.4; format: physicochemical; details: buffer
[26] = Volume of distribution at steady state in Sprague-Dawley rat at […], iv administered as infusion for 10 mins by LC-MS analysis; format: ADME, organism-based; details: in vivo, dose 1.1 mg/kg
[27] = Unbound Cmax in Swiss mouse at 20 mg/kg, po administered as single dose via gavage measured over 24 hrs by LC-MS analysis; format: ADME, organism-based; details: in vivo
[28] = Kinetic solubility of compound in phosphate buffer at pH 6.5 measured after 30 mins by HPLC-UV based analysis; format: physicochemical; details: phosphate buffer, pH 6.5, read-out: Kinetic_solubility
[29] = Protein binding in Swiss mouse plasma at 20 mg/kg, po administered as single dose via gavage measured over 24 hrs by LC-MS analysis; format: ADME, organism-based; details: read-out: PPB (converted)
[30] = AUC (0 to infinity) in Sprague-Dawley rat at […], iv administered as infusion for 10 mins by LC-MS analysis; format: ADME, organism-based; set-up: route intravenous, dose 1.1 mg/kg, time 10 min; details: in vivo
[31] = Protein binding in Sprague-Dawley rat plasma at […], iv administered as infusion for 10 mins by LC-MS analysis; format: ADME, organism-based; details: dose 1.1 mg/kg, read-out: PPB (converted)
[32] = Inhibition of N-terminal His6-tagged Plasmodium vivax DHODH expressed in Escherichia coli BL21 using L-DHO as substrate and CoQ as co-substrate by DCIP dye based spectrophotometric assay
[33] = Oral bioavailability in Sprague-Dawley rat at 18.3 mg/kg measured over 24 hrs by LC-MS analysis; format: ADME, organism-based; details: in vivo

## Cc1cc(NC2CCc3ccc(Br)cc3C2)n2nc(C(C)(F)F)nc2n1 (stereo in doubt)
[1]
  t1/2(app): 2.1 h
[2]
  Intrinsic clearance in rat liver microsomes (uL/min/mg protein): 39 µL/min
In vivo
  Tmax at 24 h: 3.3 h
[3]
  Cmax: 4.5 µM
[4]
  AUC(0-inf): 28.1 µM·h
[5]
  fAUC: 0.79 µM·h
[6]
  EC50: 7400 nM
[7]
  fCmax: 0.07 µM
[8]
  half-life at 10 min: 6.1 h
[9]
  half-life: 2 h
[10]
  intrinsic clearance: 32 µL/min
[11]
  fraction unbound: 0.028
[12]
  IC50: > 100000 nM
[13]
  CL free: 800 mL/min/kg
[14]
  solubility: 8.3 µg/mL (≈ 19.7 µM)
[15]
  fraction unbound: 0.037
[16]
  solubility: 52 µg/mL (≈ 123 µM)
[17]
  Tmax: 1 h
Plasmodium falciparum
  EC50: 0.39 nM
[18]
  AUC: 16.7 µM·h
[19]
  fVdss: 311 L/kg
[20]
  fAUC: 0.05 µM·h
[21]
  fAUC: 0.47 µM·h
[22]
  IC50: 4.6 nM
[23]
  Cmax: 2.7 µM
[24]
  solubility: 39 µg/mL (≈ 92.4 µM)
[25]
  logD: 4
[26]
  Vdss: 8.7 L/kg
[27]
  fCmax: 0.13 µM
[28]
  solubility kinetic at 0.5 h: 1.6 µg/mL (≈ 3.79 µM)
[29]
  fraction unbound at 24 h: 0.028
[30]
  AUC(0-inf) at 10 min: 2 µM·h
[31]
  fraction unbound at 10 min: 0.028
[32]
  IC50: 12 nM
[33]
  bioavailability: 86%
